Assay results as given in publication PMC8998611, “Identification of Novel GSK-3β Hits Using Competitive Biophysical Assays” (International Journal of Molecular Sciences, 2022).

Columns and labels:
p70S6K = biological target: T1, p70S6K (Homo sapiens, UniProt P23443); assay: Eurofins Kinase Diversity Panel, p70S6K; format: biochemical; conditions: 20 µM compound; ATP at Km ± 15 µM; read-out: inhibitory effect on p70S6K
T1 construct: purchased Eurofins (Kinase Diversity Panel service)
Description: (§1) To further characterize the inhibitory activity of the two selected fragments, the selectivity of G5 and G12 towards a panel of 58 kinases of the humane proteome was evaluated using the “Kinase screening and profiling” service of Eurofins, Luxembourg (Kinase Diversity Panel). […] Results are reported in Supplementary Figures S2 and S3.

SAPK2a = biological target: T2, SAPK2a (Homo sapiens, UniProt Q16539); assay: Eurofins Kinase Diversity Panel, SAPK2a; format: biochemical; conditions: 20 µM compound, ATP at Km ± 15 µM
T2 construct: purchased Eurofins (Kinase Diversity Panel service)
Description: as §1

GSK-3β [1] = biological target: T3, GSK-3β (Homo sapiens, UniProt P49841); assay: MicroScale Thermophoresis (MST) binding to fluorescently labeled GSK-3β; design: made in house; host or cells: Sf9 cells; conditions: for MST binding check, displacement assay: preincubation with 3 mM AMP-PNP, data not shown
Description: MicroScale Thermophoresis (MST) experiments were conducted in triplicate on a Monolith NT.115 Pico system (NanoTemper Technologies, Munich, Germany).
The MST technique was used both for hit binding and for affinity (kd) determination.
GSK-3β was labeled with the His-tag RED-tris-NTA label 2nd generation (Nanotemper Technologies) following Nanotemper technology protocol. The 100 nM stock labeled protein solution was used at 20 nM concentration to roughly start from 7000 fluorescence counts in each screening experiment.
GSK-3β was labelled also using RED-NHS ammine dye (Nanotemper Technologies) following the manufacturer’s protocol. The obtained ammine-labeled protein was used at 20 nM concentration to roughly start the experiments from 6000 fluorescence counts.
Binding tests were performed on eight capillaries with a constant concentration of the labeled protein (20 nM), to detect the effect induced by the compounds on the fluorescence signal (in the presence or absence of 3 mM AMP-PNP). Protein in assay buffer in the presence of 5% DMSO was the negative control.
Assay buffer: Phosphate buffer 0.1 M pH 7.2, 5 mM MgCl2, 0.001% Tween80, 0.1% PEG8000. Experiments were performed in triplicates. Data elaboration and plots were performed using MO.Control Nanotemper software.

GSK-3β [2] = biological target: T3, GSK-3β; assay: Thermal shift assay with SYPRO Orange; format: binding; design: made in house; host or cells: Sf9 cells; conditions: GSK-3β 5 μM; normalized to DMSO effect
Description: Given the poor inhibitory activity of compounds B3 and E2, only G5 and G12 were selected for further biophysical and structural investigations. […] A Tm increase of 3.2 °C and 2.5 °C was observed upon binding of G5 and G12, respectively. Reported effects were compared and normalized to the effect induced by DMSO alone on GSK-3β denaturation. The same experiments were also performed in the presence of AMP-PNP to unravel a possible effect of this molecule on protein denaturation.
Thermal shift experiments were conducted in technical triplicates and recorded with a ViiA7^TM real-time PCR instrument. The analysis protocol of Partch and colleagues developed for fast stability screening of buffers and interactors for recombinant proteins was followed, [42]. Briefly, the recombinant protein GSK-3β at a final concentration of 5 μM was mixed with the dye SYPRO Orange (2× final concentrated) in the selected assay buffer (NaCl 300 mM, Hepes pH 7.5 20 mM, MgCl2 5 mM, DTT 1 mM) and incubated with hit compounds at two different concentrations, 200 and 500 μM. Experiments were also performed on GSK-3β also in the presence of AMP-PNP at a final concentration of 200 μM. […]
Output data were collected and analyzed with Excel software and Graphpad Prism 7.

GSK-3β [3] = biological target: T3, GSK-3β; assay: 19F T2 filter NMR ligand-based binding experiments; design: made in house; host or cells: Sf9 cells; conditions: in presence of GSK-3β and 1 mM or 3 mM AMP-PNP
Description: GSK-3β was pre-incubated at room temperature for 10 min in the presence of 1 mM AMP-PNP before addition to the mixtures. […] On the contrary, NMR signals of the non-binding molecules were not affected by the presence of the target protein. Molecules selected from this first NMR screening were then tested as a single compound under the same screening conditions in the presence of two non-binding compounds as negative controls. The promising compounds, still showing binding to GSK-3β when tested as singles, were retested also in the presence of 3 mM AMP-PNP (among these, G5 and G12, whose NMR spectra are reported in Figure 2a,b, respectively). […] These hits were then further analyzed and characterized through different biophysical approaches.
All NMR screening experiments were recorded at 298 K with a Bruker FT NMR Avance III 600 MHz spectrometer, equipped with a 5 mm CryoProbe™ QCI ^1H/^19F–^13C/^15N–D with an automatic sample changer SampleJet™ with temperature control. All GSK-3β experiments were performed at low enzyme concentration (750 nM/1 μM) in 60 mM Hepes pH 7.5, 25 mM NaCl, 10 mM MgCl2, 2 mM TCEP, 8% D2O (for lock signal), 0.003% Triton X-100 (for the coating of NMR tube wall). […]

T3 sequence (P49841 whole entry): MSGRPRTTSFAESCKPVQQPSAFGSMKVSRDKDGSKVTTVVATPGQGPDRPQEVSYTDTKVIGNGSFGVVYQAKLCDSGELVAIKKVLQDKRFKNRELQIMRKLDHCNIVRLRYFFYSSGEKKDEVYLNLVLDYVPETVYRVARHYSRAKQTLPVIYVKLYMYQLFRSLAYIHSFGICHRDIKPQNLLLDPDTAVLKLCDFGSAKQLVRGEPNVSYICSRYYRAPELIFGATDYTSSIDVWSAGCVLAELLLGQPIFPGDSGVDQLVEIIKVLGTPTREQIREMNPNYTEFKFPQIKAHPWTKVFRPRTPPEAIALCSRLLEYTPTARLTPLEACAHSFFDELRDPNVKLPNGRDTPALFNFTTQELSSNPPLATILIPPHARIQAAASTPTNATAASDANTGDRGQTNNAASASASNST
T2 sequence (Q16539 whole entry): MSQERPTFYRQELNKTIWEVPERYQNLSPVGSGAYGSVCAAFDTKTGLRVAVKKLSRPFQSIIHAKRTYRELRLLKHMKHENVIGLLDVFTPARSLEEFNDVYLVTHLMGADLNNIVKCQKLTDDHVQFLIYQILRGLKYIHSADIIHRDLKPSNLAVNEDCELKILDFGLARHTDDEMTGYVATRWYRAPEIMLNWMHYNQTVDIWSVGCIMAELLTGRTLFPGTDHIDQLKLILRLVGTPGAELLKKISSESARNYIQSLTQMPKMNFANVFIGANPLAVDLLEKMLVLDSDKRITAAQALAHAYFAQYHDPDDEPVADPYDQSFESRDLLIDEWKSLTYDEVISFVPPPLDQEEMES
T1 sequence (P23443 whole entry): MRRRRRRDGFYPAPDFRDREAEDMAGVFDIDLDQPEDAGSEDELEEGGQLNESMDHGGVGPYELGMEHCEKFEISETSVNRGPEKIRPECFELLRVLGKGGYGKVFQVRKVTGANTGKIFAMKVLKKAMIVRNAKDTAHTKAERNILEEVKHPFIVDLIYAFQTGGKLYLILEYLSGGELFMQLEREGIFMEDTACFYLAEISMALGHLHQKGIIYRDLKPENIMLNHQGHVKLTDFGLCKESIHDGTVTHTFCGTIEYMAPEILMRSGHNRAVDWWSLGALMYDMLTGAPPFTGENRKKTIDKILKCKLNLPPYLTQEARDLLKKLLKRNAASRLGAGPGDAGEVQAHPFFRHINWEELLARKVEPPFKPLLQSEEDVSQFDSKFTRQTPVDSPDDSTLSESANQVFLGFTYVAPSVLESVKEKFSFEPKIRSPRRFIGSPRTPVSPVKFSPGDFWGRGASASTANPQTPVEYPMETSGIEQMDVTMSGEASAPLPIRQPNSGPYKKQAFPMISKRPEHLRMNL

Row | Compound | inhibition at 20 µM (p70S6K) [%] | inhibition at 20 µM (SAPK2a; read-out: inhibitory effect on SAPK2a) [%] | MST binding check, displacement assay (GSK-3β [1]) | Tm increase upon binding (GSK-3β [2]) [°C] | binding by 19F T2 filter NMR (line broadening of signal) (GSK-3β [3]) | inhibitory effect on SAPK2a (SAPK2a) | Kd (GSK-3β [1]; complete binding curve, average of three experiments ± SD, read-out: affinity parameter (kd), MST) [µM]
1 | CS(=O)(=O)N1CC(c2nc(N)ncc2-c2ccc(F)cc2)C1 [G5] | 26 | 19 | maintained their ability to bind GSK-3β | 3.2 | strong line broadening |  | 
2 | O=C(Nc1ccccn1)C1CCN(C(=O)CCc2ccccc2F)C1 (centres unmarked) [G12] | 15 |  | maintained their ability to bind GSK-3β | 2.5 | strong line broadening | no inhibitory effect | 66.5 ± 31.8
